Assays:
IL-23 [1] = assay: First animal study: IL-23 in skin homogenates (ELISA); format: in vivo, BALB/c mice; conditions: for Level of IL-23: vs. IMQ group
Description: (§1) The effect of topical compositions on the treatment of psoriasis has been tested in two animal studies. In both studies, typical features of psoriasis, namely erythema, scaling, and skin thickness, were induced by the application of 5% w/w imiquimod (IMQ) cream on the dorsal skin of BALB/c mice over a period of 6 consecutive days. Animals that developed psoriasis-like symptoms were used for studying the efficacy of the fenoldopam topical compositions. In the fenoldopam-treated groups, the animals received imiquimod only for the first two days. From the third day of the study, the animals received imiquimod and fenoldopam for the next four days. First Animal Study: The different treatment groups of mice used in the first animal study were as following: the SHAM group in the study represents mice which were shaven on the dorsal side without any treatment; negative control group represents the typical psoriatic model induced by imiquimod 5% (IMQ); positive control group represents the mice induced with psoriasis by imiquimod and then treated with the marketed steroid betamethasone valerate (IMQ BMV); and treatment groups represent the mice induced with psoriasis by imiquimod and then treated with a topical dose of 1 mg/cm^2 fenoldopam using different compositions of fenoldopam, such as solution (IMQ FD), water-washable ointment (IMQ WB 45/55), or anhydrous gel (IMQ AG BHT) compositions.
(§2) An IMQ-induced psoriasis model reproduces biochemical and histopathological parameters characteristic of human psoriatic lesions. Topical application of the IMQ cream increased levels of cytokines such as IL-23, TNF-α, and IL-17 in the treated skin tissues. The skin homogenates obtained from mice of different groups were analyzed using ELISA for quantification of IL-17, IL-23, and TNF-α, levels as the selected interleukins are the typical inflammatory markers of psoriasis. […] The effect of fenoldopam was as effective as the reference topical treatment with the marketed steroid.

IL-17 [2] = assay: First animal study: IL-17 in skin homogenates (ELISA); format: in vivo, BALB/c mice; conditions: for Level of IL-17: vs. IMQ group
Description: as §1, §2

[3] = Fenoldopam stability in solutions at different pH after 72 hours (Mass spectrometry); format: physicochemical
Experimental: FIGS. 1a-1e depict the effect of pH on fenoldopam stability. FIGS. 1a-e depict fenoldopam stability in solutions at different pH levels as determined by Mass Spectra (MS). Fenoldopam samples at a pH of 2.5 (FIG. 1a) and samples which were adjusted to a pH of 3.6 (FIG. 1b), 6.6 (FIG. 1c) and 7.2 (FIG. 1d) with NaOH were maintained for 72 hours, after which MS analysis was performed. FIG. 1e depicts the possible degradation products of fenoldopam obtained following exposure to a pH above 4.
Additional fenoldopam samples (Samples A3-D3) were maintained at a pH of 2.5, 3.6, 6.6 and 7.2 without adjustment back to pH 2.5 and were analyzed after 72 hours by HPLC at 225 nm and Mass spectrometry (MS).

TNF-α [4] = assay: First animal study: TNF-α in skin homogenates (ELISA); format: in vivo, BALB/c mice; conditions: for Level of TNF-α: vs. IMQ group
Description: as §1, §2

[5] = Stability of fenoldopam in solution at different pH values (HPLC, UV detector 225 nm); format: physicochemical
Experimental: In order to evaluate the stability of fenoldopam in solutions maintained at various pHs above 4 and further solutions that were further adjusted back to an acidic pH, the following experiment was conducted. Fenoldopam mesylate was first dissolved in buffer phosphate at pH 2.5, in a concentration of 0.1 mg/mL (sample A). The solution was then divided into 5 samples:
Sample A: remains at pH 2.5
Sample B: pH was adjusted to pH 3.6 with NaOH.
Sample C: pH was adjusted to pH 6.6 with NaOH.
Sample D: pH was adjusted to pH 7.2 with NaOH.
Sample E: pH was adjusted to pH 9.3 with NaOH.
All samples were then analyzed by HPLC and UV detector at 225 nm. Table 1 represents the results obtained by the HPLC analysis conducted with the different fenoldopam samples.

[6] = tested on: IMQ-induced psoriasis model; assay: Second animal study: histopathology (H&E) of skin; format: in vivo, BALB/c mice; conditions: skin collected on the 7th day
Description: as §1, with “In both” for “The effect of topical compositions on the treatment of psoriasis has been tested in two animal studies. In both”, “BHT) compositions. […]” for “BHT) compositions.”

[7] = tested on: IMQ-induced psoriasis model; assay: First animal study: IMQ-induced psoriasis, phenotype and PASI scoring; format: in vivo, BALB/c mice
Description: (§3) The effect of topical compositions on the treatment of psoriasis has been tested in two animal studies. In both studies, typical features of psoriasis, namely erythema, scaling, and skin thickness, were induced by the application of 5% w/w imiquimod (IMQ) cream on the dorsal skin of BALB/c mice over a period of 6 consecutive days. Animals that developed psoriasis-like symptoms were used for studying the efficacy of the fenoldopam topical compositions. In the fenoldopam-treated groups, the animals received imiquimod only for the first two days. From the third day of the study, the animals received imiquimod and fenoldopam for the next four days. […]
Psoriatic area and severity index (PASI) scoring has been analyzed to determine the efficacy of the fenoldopam compositions of the present invention with appropriate controls as part of the study. FIG. 11 depicts PASI scoring including body weight, erythema, scaling, and skin thickness determined during the study. […]

IL-17 [8] = assay: Second animal study: IL-17 in skin homogenates (ELISA); format: in vivo, BALB/c mice
Description: as §1, with “In” for “The effect of topical compositions on the treatment of psoriasis has been tested in two animal studies. In”
(§4) The second animal study was conducted in order to test additional topical compositions of fenoldopam with different strengths (0.01%, 0.1% and 1% of fenoldopam), as well as the effect of systemic administration of fenoldopam. […]
(§5) The skin homogenates obtained from mice of the different groups were analyzed using ELISA for quantification of IL-17, IL-23, TNF-α, and IL-22 levels, as the selected interleukins are the typical inflammatory markers of psoriasis.

[9] = tested on: IMQ-induced psoriasis model; assay: Second animal study: IMQ-induced psoriasis, phenotype and PASI scoring; format: in vivo, BALB/c mice; conditions: compared to negative control
Description: as §1, with “In” for “The effect of topical compositions on the treatment of psoriasis has been tested in two animal studies. In”
as §4

[10] = tested on: IMQ-induced psoriasis model; assay: First animal study: histopathology (H&E) of dorsal skin; format: in vivo, BALB/c mice; conditions: vs. IMQ-treated group
Description: as §3

IL-22 = assay: Second animal study: IL-22 in skin homogenates (ELISA); format: in vivo, BALB/c mice
Description: as §1, with “In” for “The effect of topical compositions on the treatment of psoriasis has been tested in two animal studies. In”
as §4, §5

IL-23 [11] = assay: Second animal study: IL-23 in skin homogenates (ELISA); format: in vivo, BALB/c mice
Description: as §1, with “In” for “The effect of topical compositions on the treatment of psoriasis has been tested in two animal studies. In”
The second animal study was conducted in order to test additional topical compositions of fenoldopam with different strengths (0.01%, 0.1% and 1% of fenoldopam), as well as the effect of systemic administration of fenoldopam. The different groups of mice used in the second animal study were as following: the SHAM group in the study represents mice which were shaven on the dorsal side without any treatment; negative control group represents the typical psoriatic model induced by imiquimod 5% (IMQ); positive control group represents the mice induced with psoriasis by imiquimod and then treated with the marketed steroid betamethasone valerate (IMQ BMV); and treatment groups represent the mice induced with psoriasis by imiquimod and then treated with a topical dose of various compositions of fenoldopam: water-washable base (IMQ_WB45/55-0.01%, IMQ_WB45/55-0.1%, IMQ_WB45/55-1% or IMQ_WB45/55_1% No citric acid), or oleaginous ointment composition (IMQ_OB 0.01%, IMQ_OB 0.1% or IMQ_OB […]). An additional group of mice received systemic Fenoldopam by intraperitoneal injection (IMQ_FD_IP).
as §5

TNF-α [12] = assay: Second animal study: TNF-α in skin homogenates (ELISA); format: in vivo, BALB/c mice
Description: as §1, with “In” for “The effect of topical compositions on the treatment of psoriasis has been tested in two animal studies. In”
as §4, §5

Oc1ccc(C2CNCCc3c2cc(O)c(O)c3Cl)cc1 (stereo not drawn) [Fenoldopam, 6-chloro-2,3,4,5-tetrahydro-1-(4-hydroxyphenyl)-[1H]-3-benzazepine-7,8-diol, methane sulfonate]
Level of IL-23 (IL-23 [1]): inhibited | Level of IL-17 (IL-17 [2]): inhibited | Stability by MS analysis ([3]; pH of 2.5 and 3.6, after 3 days): stable after 3 days and showed a single peak | Stability by MS analysis ([3]; pH of 6.6 and 7.2, after 3 days): formation of several peaks after 3 days | Level of TNF-α (TNF-α [4]): inhibited | RRT-0.9 (%) ([5]; Sample B1: pH 3.6 for 12 hours, then back to pH 2.5 for additional 5 hours): 0.9% | RRT-0.9 (%) ([5]; Sample B2: pH 3.6 for 12 hours, then back to pH 2.5 for additional 48 hours): 0.9% | RRT-0.9 (%) ([5]; Sample B3: pH 3.6 for 72 hours without adjustment back to pH 2.5): 1.0% | RRT-0.9 (%) ([5]; Sample B: pH 3.6 for 12 hours, 0.1 mg/mL, room temperature, protected from light): 0.9% | RRT-0.9 (%) ([5]; Sample C1: pH 6.6 for 12 hours, then back to pH 2.5 for additional 5 hours): 4.0% | RRT-0.9 (%) ([5]; Sample C2: pH 6.6 for 12 hours, then back to pH 2.5 for additional 48 hours): 4.0% | fenoldopam degraded ([5]; Sample C3: 72 hours at pH 6.6): 18% | RRT-0.9 (%) ([5]; Sample C3: pH 6.6 for 72 hours without adjustment back to pH 2.5): 17.5% | RRT-0.9 (%) ([5]; Sample C: pH 6.6 for 12 hours): 4.9% | RRT-0.9 (%) ([5]; Sample D1: pH 7.2 for 12 hours, then pH 2.5 for additional 5 hours): 11.6% | RRT-0.9 (%) ([5]; Sample D2: pH 7.2 for 12 hours, then back to pH 2.5 for additional 48 hours): 11.5% | fenoldopam degraded ([5]; Sample D3: 72 hours at pH 7.2): 50% | RRT-0.9 (%) ([5]; Sample D3: pH 7.2 for 72 hours without adjustment back to pH 2.5): 49.8% | RRT-0.9 (%) ([5]; Sample D: pH 7.2 for 12 hours): 15.8% | Fenoldopam, (%) ([5]; Sample E1: pH 9.3 for 12 hours, then pH 2.5 for additional 5 hours): 2% | Fenoldopam, (%) ([5]; Sample E2: pH 9.3 for 12 hours, then pH 2.5 for additional 48 hours): 2.2% | Fenoldopam, (%) ([5]; Sample E3: pH 9.3 for 72 hours without adjustment back to pH 2.5): No main peak | Fenoldopam, (%) ([5]; Sample E: pH 9.3 for 12 hours): No main peak | RRT-0.9 impurity ([5]; Samples B, B1, B2 (12 hours at pH 3.6, then pH 2.5) and B3 (72 hours at pH 3.6)): less than 1% | RRT-0.9 impurity ([5]; Samples C, C1 and C2 (12 hours at pH 6.6 followed by adjustment back to pH 2.5)): 4% | minor peak of fenoldopam ([5]; Samples E, E1, E2 and E3 (pH 9.3)): ~2% | Appearance of solution ([5]; pH 3.6): pH 3.6 - Clear | Appearance of solution ([5]; pH 6.6): pH 6.6 - yellowish | Appearance of solution ([5]; pH 7.2): pH 7.2 - yellowish | Appearance of solution ([5]; pH 9.3): pH 9.3- yellowish

CCCCC(=O)O[C@]1(C(=O)CO)[C@@H](C)C[C@H]2[C@@H]3CCC4=CC(=O)C=C[C@]4(C)[C@@]3(F)[C@@H](O)C[C@@]21C [BMV, betamethasone valerate]
Histopathology (H&E): psoriatic features [6]: ameliorated all of the above-mentioned parameters | Decrease in IL-23 levels in comparison with the IMQ group (IL-23 [1]; first animal study): 2.02 fold | Level of IL-23 (IL-23 [1]): inhibited | Psoriatic symptoms (phenotypic images of dorsal skin) ([7]; IMQ-treated mice, topical treatment for four days, 1 mg/cm^2 fenoldopam): amelioration of psoriatic symptoms | PASI scores over the treatment period ([7]; scale of 0-4, vs. negative control): declines in PASI scores | Decrease in IL-17 levels in comparison with the IMQ group (IL-17 [2]; first animal study): 2.74 fold | Level of IL-17 (IL-17 [2]): inhibited | Fold difference in IL-17 levels (↓, vs. IMQ) (IL-17 [8]; listed as IMQ_BMV): 1.43 ↓ fold | Fold difference in IL-17 levels (↓, vs. IMQ) (IL-17 [8]; listed as positive control): 1.43 fold | Psoriasis symptoms (phenotypic images: erythema, scaling, skin thickness) [9]: remission of the psoriasis symptoms | Psoriasis symptoms (phenotypic images: erythema, scaling, skin thickness) ([9]; listed as IMQ_BMV): amelioration of psoriatic symptoms | Histopathology (H&E): psoriatic features [10]: decline in the intensity of psoriatic features | Fold difference in IL-22 levels (↓, vs. IMQ) (IL-22; listed as IMQ_BMV): 1.55 ↓ fold | Fold difference in IL-22 levels (↓, vs. IMQ) (IL-22; listed as positive control): 1.55 fold | Decrease in TNF-α levels in comparison with the IMQ group (TNF-α [4]; first animal study): 2.75 fold | Level of TNF-α (TNF-α [4]): inhibited | Decline in IL-23 levels compared to the negative control (IL-23 [11]; listed as IMQ_BMV): decline in IL-23 levels | Fold difference in IL-23 levels (↓, vs. IMQ) (IL-23 [11]; listed as IMQ_BMV): 1.57 ↓ fold | Fold difference in IL-23 levels (↓, vs. IMQ) (IL-23 [11]; listed as positive control): 1.57 fold | Fold difference in TNF-α levels (↓, vs. IMQ) (TNF-α [12]; listed as IMQ_BMV): 2.21 ↓ fold | Fold difference in TNF-α levels (↓, vs. IMQ) (TNF-α [12]; listed as positive control): 2.21 fold

From patent US11612607B2, “Fenoldopam topical formulations for treating skin disorders” (TARO PHARMACEUTICAL INDUSTRIES LTD., priority 2016, dated 2023)
